From patent US7700648B2, “Ester compound and its use” (Sumitomo Chemical Company Limited, priority 2004, dated 2010)

Test system: common mosquitoes (Culex pipiens pallens)
Experiment: Knock-down test on common mosquitoes by oil solution spray in a cubic chamber
Format: in vivo
Conditions: 0.7 ml of 0.025% oil solution sprayed in 70 cm cubic chamber; ten female Culex pipiens pallens; counted for 10 minutes
Text: A solution of 0.025 part of the present compound (1) dissolved with 10 parts of dichloromethane was mixed with 89.975 parts of deodorized kerosene to give a 0.025% oil solution.
Ten female common mosquitoes (Culex pipiens pallens) were left in a cubic chamber (70 cm at side). Seven-tenths (0.7) ml of the 0.025% oil solution of the present compound (1) was sprayed with a spray gun at a pressure of 8.8×10^4 Pa from a small window on the side of the chamber. Then, the number of the knocked-down insects was counted at times for 10 minutes. The time (KT50) for knocking down half of the tested insects was calculated from the result.
For the comparison, 5-benzyl-3-furylmethyl 1R-trans-2,2-dimethyl-3-((E)-2-cyano-3-ethoxy-3-oxo-1-propenyl)cyclopropanecarboxylate (hereinafter, referred to as the comparison compound) was also subjected to the above mentioned test. The test was done twice for one compound.

Compound: CCOC(=O)/C(C#N)=C/[C@@H]1[C@@H](C(=O)OCc2coc(Cc3ccccc3)c2)C1(C)C (relative stereo) [The comparison compound, 5-benzyl-3-furylmethyl 1R-trans-2,2-dimethyl-3-((E)-2-cyano-3-ethoxy-3-oxo-1-propenyl)cyclopropanecarboxylate]
- KT50 (time for knocking down half of the tested insects): 6.1 min

Compound: COC(=O)/C(C#N)=C/C1C(C(=O)OCc2coc(Cc3ccccc3)c2)C1(C)C (stereo not drawn) [The present compound (1), 5-benzyl-3-furylmethyl 1R-trans-2,2-dimethyl-3-((E)-2-cyano-3-methoxy-3-oxo-1-propenyl)cyclopropan ecarboxylate]
- KT50 (time for knocking down half of the tested insects): 0.7 min
